# The source made the active and inactive calls. How the calls were made is not given here.
# Target: Ubiquitin carboxyl-terminal hydrolase 8 (Homo sapiens) (UniProt P40818)
# Test: Ubiquitin-specific protease 8 inhibitors, concentration-effect, biochemical, validation of initial actives (AID 1645862);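 further: potency reflects inhibition of USP8 cleavage of a ubiquitin rhodamine substrate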
# Conditions: recombinant USP8 deubiquitinase activity assay
# Chain of Ubiquitin carboxyl-terminal hydrolase 8 (Homo sapiens) (P40818 whole entry, looked up): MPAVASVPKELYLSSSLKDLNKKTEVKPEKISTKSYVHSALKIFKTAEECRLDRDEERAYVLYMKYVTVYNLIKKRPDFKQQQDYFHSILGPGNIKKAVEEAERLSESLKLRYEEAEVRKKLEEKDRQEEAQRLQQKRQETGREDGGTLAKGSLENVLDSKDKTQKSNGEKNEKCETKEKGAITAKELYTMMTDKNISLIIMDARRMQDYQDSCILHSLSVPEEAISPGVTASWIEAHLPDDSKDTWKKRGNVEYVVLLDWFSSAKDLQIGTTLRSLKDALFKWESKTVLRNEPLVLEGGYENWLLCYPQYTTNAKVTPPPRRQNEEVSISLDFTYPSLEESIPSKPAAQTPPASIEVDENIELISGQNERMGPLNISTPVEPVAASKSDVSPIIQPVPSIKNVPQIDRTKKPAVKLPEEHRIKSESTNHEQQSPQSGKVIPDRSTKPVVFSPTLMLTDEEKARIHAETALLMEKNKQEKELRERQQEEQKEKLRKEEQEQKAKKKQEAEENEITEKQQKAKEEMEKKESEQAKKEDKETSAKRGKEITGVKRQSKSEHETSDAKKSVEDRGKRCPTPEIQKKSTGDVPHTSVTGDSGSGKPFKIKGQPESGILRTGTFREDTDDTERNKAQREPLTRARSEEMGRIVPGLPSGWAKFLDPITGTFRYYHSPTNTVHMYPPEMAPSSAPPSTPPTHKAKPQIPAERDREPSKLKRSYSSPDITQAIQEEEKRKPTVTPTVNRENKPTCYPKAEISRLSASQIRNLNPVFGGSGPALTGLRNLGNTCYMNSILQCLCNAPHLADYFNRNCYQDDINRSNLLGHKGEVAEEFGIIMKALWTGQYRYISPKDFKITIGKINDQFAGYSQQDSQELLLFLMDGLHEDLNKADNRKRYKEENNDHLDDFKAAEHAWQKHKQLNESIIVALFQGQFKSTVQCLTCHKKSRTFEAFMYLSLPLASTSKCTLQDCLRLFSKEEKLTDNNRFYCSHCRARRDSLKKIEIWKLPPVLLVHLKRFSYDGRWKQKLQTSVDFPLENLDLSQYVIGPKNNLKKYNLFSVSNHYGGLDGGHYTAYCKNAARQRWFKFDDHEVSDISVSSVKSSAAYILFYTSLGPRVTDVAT
row,SMILES,IC50
1,CC1Oc2cc3c(-c4c(O)cc(O)c5c(O)c6c(cc45)OC(C)C(C)C6=O)c(O)cc(O)c3c(O)c2C(=O)C1C (configuration not stated),> 40 µM (inactive)
2,COc1c2nc3ccccc3oc-2cc(=O)c1OC,> 40 µM (inactive)
3,Cc1ccc(NC(=O)Nc2nnc(CC(=O)NCc3ccccc3)s2)cc1F,> 40 µM (inactive)
4,O=C(COC(=O)c1cc2c(s1)CCC2)c1ccc2[nH]c(=O)[nH]c2c1,> 40 µM (inactive)
5,Cc1ncc(-c2ccc3c(c2)OCO3)c(-c2nccs2)n1,> 40 µM (inactive)
6,O=C(Nc1ccccc1Cl)c1cc(-c2ccncc2)n[nH]1,> 40 µM (inactive)
7,Nc1ncc(-c2ccc(F)cc2)c(C2CCCN(C(=O)c3ccn[nH]3)C2)n1 (configuration not stated),> 40 µM (inactive)
8,Cc1ccc(NC(=O)c2nnn(CC(=O)Nc3cccc(C)c3C)c2N)cc1C,> 40 µM (inactive)
9,Cc1nn(-c2nc3ccccc3o2)c2c1C(c1cccc([N+](=O)[O-])c1)CC(=O)N2 (configuration not stated),> 40 µM (inactive)
10,COc1ccc(Cl)cc1NC(=O)c1nc(-c2cn(-c3ccccc3)nn2)no1,> 40 µM (inactive)
11,COc1ccc(CCN2COc3c(cc(Cl)c4cccnc34)C2)cc1OC,> 40 µM (inactive)
12,Nc1c(-c2ccc(Cl)cc2)cnc2cc(-c3ccc(Cl)c(Cl)c3)nn12,> 40 µM (inactive)
13,Cc1cc(-c2ccc(S(=O)(=O)NCc3ccc(Cl)cc3)s2)on1,> 40 µM (inactive)
14,O=C(Nc1cccc(-c2nc3ncccc3o2)c1)c1ccc([N+](=O)[O-])cc1,> 40 µM (inactive)
15,Cc1ccnc(NS(=O)(=O)c2ccc(NC(=O)c3ccc(S(=O)(=O)N(C)Cc4ccccc4)cc3)cc2)n1,> 40 µM (inactive)
16,O=C(CCCCn1c(=O)c2ccccc2n(CC(=O)Nc2ccc3c(c2)OCCO3)c1=O)NCc1ccco1,> 40 µM (inactive)
17,C[C@H](Cc1cc2c(cc1O)OCO2)[C@@H](C)Cc1cc2c(cc1O)OCO2,33.2 µM
18,Cc1cccc(N2CCN(C(=O)c3nc4cccnc4n(C)c3=O)CC2)c1C,> 40 µM (inactive)
19,O=C(/C=C/C=C/C=C/C1CCCCC1)NC1=C[C@@](O)(/C=C/C=C/C=C/C(=O)NC2=C(O)CCC2=O)[C@@H]2O[C@@H]2C1=O,> 40 µM (inactive)
20,O=C(Nc1cccc(C(F)(F)F)c1)c1cc2c(s1)-c1ccccc1OC2,> 40 µM (inactive)
21,Cc1ccc(NC(=O)CSc2ccc(NC(=O)c3ccc(C(=O)O)cc3C(=O)O)cc2)c(C)c1,> 40 µM (inactive)

row,SMILES,IC50
1,NS(=O)(=O)c1ccc(CNC(=O)c2ccc(Cl)c(S(=O)(=O)Nc3cc(Cl)ccc3Cl)c2)cc1,> 40 µM (inactive)
2,CC[C@@H](C(=O)[C@@H](C)[C@@H](O)[C@H](C)CCc1ccc(C)c(O)c1C(=O)O)[C@@H]1O[C@](CC)([C@H]2CC[C@](O)(CC)[C@H](C)O2)C[C@@H]1C,> 40 µM (inactive)
3,Cc1ccc(Cn2c(C(=O)O)c(CNCc3ccco3)c3ccccc32)cc1,> 40 µM (inactive)
4,Cc1cc(N2CCOCC2)nc(N2CCN(C(=O)C(C)Oc3ccccc3)CC2)n1 (configuration not stated),> 40 µM (inactive)
5,O=C(CNC(=O)OCc1ccccc1)Nc1ccc(Br)cc1C(=O)c1ccccc1Cl,> 40 µM (inactive)
6,COc1cc(C(=O)Nc2ccc(C#N)cc2)ccc1OCC(=O)Nc1ccccc1C(F)(F)F,> 40 µM (inactive)
7,CNC(=O)Cc1ccc(NC(=O)/C=C/c2cn(-c3ccccc3)nc2-c2ccc(F)cc2)cc1,> 40 µM (inactive)
8,COc1ccc(NS(=O)(=O)c2cc(NC(=O)CC(=O)c3ccc([N+](=O)[O-])cc3)ccc2C)cc1,> 40 µM (inactive)
9,O=C(/C=C/c1ccc2c(c1)OCO2)Nc1nc2n(n1)C(c1ccccc1)CC(=O)N2 (configuration not stated),> 40 µM (inactive)
10,c1cncc(-c2cnc3sc(NCc4ccc5c(c4)OCO5)nn23)c1,> 40 µM (inactive)
11,Cc1ccc(-c2cnc(C3CC3)o2)cc1S(=O)(=O)Nc1ccc(F)c(Cl)c1,> 40 µM (inactive)
12,O=C1CC(C(=O)Nc2ccc3c(c2)OCO3)n2nc(SCc3ccccc3)nc2N1 (configuration not stated),> 40 µM (inactive)
13,Cc1nnc(-c2ccc3ccn(CC(=O)N4CCN(c5ccccc5)CC4)c3c2)o1,> 40 µM (inactive)
14,Cc1cc(NC(=O)CN2CCCN(S(=O)(=O)c3ccc(F)cc3)CC2)ccc1Br,> 40 µM (inactive)
15,COc1ccc(Cn2nc(C)cc2NC(=O)c2cccc(F)c2)cc1OC,> 40 µM (inactive)
16,COc1ccc(NC(=O)Cn2c(=O)n(CCC(=O)NCc3ccccc3)c(=O)c3sccc32)cc1Cl,> 40 µM (inactive)
17,COc1ccc(OC)c2c(C)cc(N3CC(C)CC(C)C3)nc12 (configuration not stated),> 40 µM (inactive)
18,O=C(c1cscn1)N1CCC2(CC1)CC1(CO2)Nc2ccccc2-n2cccc21 (configuration not stated),> 40 µM (inactive)
19,CSc1ccccc1C(=O)Nc1sc2c(c1C(N)=O)CCC(C)C2 (configuration not stated),> 40 µM (inactive)
20,CCOc1ccc(-c2nc(SCC(=O)Nc3cccc(C)c3)n3[nH]c(=O)cc3n2)cc1,> 40 µM (inactive)
21,O=C(CCc1ccc(F)cc1)N1CCOC(CCc2cc(=O)[nH]cn2)C1 (configuration not stated),> 40 µM (inactive)

row,SMILES,IC50
1,CCOc1ccc2c(c1)c(=O)c(C(=O)c1ccccc1)cn2CC(=O)Nc1ccccc1,> 40 µM (inactive)
2,COc1ccc(-c2cc3nc([C@H](C)NC(=O)Cc4cc(F)ccc4F)nn3cn2)cc1,> 40 µM (inactive)
3,CCN(Cc1ccccc1)C(=O)C1CCN(Cc2ccc(OC)c(OC)c2OC)CC1,> 40 µM (inactive)
4,COc1ccc(NS(=O)(=O)c2cc(NC(=O)CC(=O)c3ccc([N+](=O)[O-])cc3)ccc2Cl)cc1,> 40 µM (inactive)
5,CC(C)c1ccc(NC(=O)c2cc(-c3cccnc3)n[nH]2)cc1,28.6 µM
6,Cc1ccccc1NC(=O)Nc1cccc(-c2nnc(-c3ccccc3)o2)c1,> 40 µM (inactive)
7,Cc1noc(/C=C/Nc2cc(Cl)cc(Cl)c2)c1[N+](=O)[O-],> 40 µM (inactive)
8,N#Cc1cn2c(nc1-c1ccc(Cl)cc1)nc1ccccc12,> 40 µM (inactive)
9,O=C(Nc1cc(F)c2nc(N3CCCC3)ccc2c1)c1ccco1,> 40 µM (inactive)
10,COc1c(C)c(OC(=O)c2c(C)c(C)c(OC(=O)c3c(C)c(C)c(O)c(C)c3O)c(C)c2OC)c(C)c(C)c1C(=O)O,> 40 µM (inactive)
11,CCOc1ccccc1NC(=O)Cn1c(=O)n(CCC(=O)NCCc2ccc(OC)c(OC)c2)c(=O)c2ccccc21,> 40 µM (inactive)
12,CCCc1nnc(C(=O)Nc2ccc(C(=O)NC(C)c3ccccc3)cc2)s1 (configuration not stated),> 40 µM (inactive)
13,Cc1ccc(NC(=O)c2cc(-c3ccncc3)n[nH]2)cc1Cl,> 40 µM (inactive)
14,CC(=O)CSc1nc2sc3c(c2c(=O)n1-c1ccccc1)CCCC3,> 40 µM (inactive)
15,CCOC(=O)N1CCN(C(=O)c2ccc(CS(=O)c3ccccc3Cl)o2)CC1 (configuration not stated),> 40 µM (inactive)
16,CC(C)(C)C(=O)[C@@H]1[C@@H](C(=O)c2ccc3c(c2)OCO3)[C@@]2(C(=O)Nc3ccccc32)[C@H]2c3ccccc3C=CN12,7.11 µM
17,CCCCCCCCCCCCCCCc1cc(O)cc(O)c1C(=O)O,30.9 µM
18,N#C/C(=C\c1ccc(OCc2cccc(C(=O)O)c2)cc1)c1ccc(F)cc1,> 40 µM (inactive)
19,COc1ccc(/C=C/C(=O)Nc2ccc3nc(N4CCN(c5ncccn5)CC4)cc(C)c3c2)cc1,> 40 µM (inactive)
20,Cn1nc(Cl)c(Cl)c1Oc1ccc(S(=O)(=O)Nc2ccc(Oc3ccc(C(F)(F)F)cn3)c(Cl)c2)cc1,> 40 µM (inactive)

# Source: PubChem BioAssay AID1645862 (Buhrlage Lab, Dana-Farber Cancer Institute and Novartis …, 2021)
